For twelve compounds, GI50 and TGI results are on record in PubChem BioAssay (NCI).

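Following 48 hours of exposure in 96-well plates, responses at five concentrations were used to interpolate endpoints linearly. The concentration for 50% growth inhibition is given as GI50. The concentration for full growth arrest is given as TGI.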

Some test systems named below: A549 NSCLC; ACHN renal; COLO 205 colon; HCT-116 colon; LOX IMVI melanoma; NCI-H460 lung; OVCAR-8 ovarian; RXF 393 renal.
Holding throughout (test): NCI-60 cell line screen, 48 h

As to `COc1cc2c(cc1C)NC(=O)/C2=C/c1ccccn1`, the GI50 with A549 NSCLC is 4.11 µM; in the test with ACHN renal it was 2.48 µM; with COLO 205 colon it was 4.23 µM; with HCT-116 colon it was 2.53 µM; in the test on LOX IMVI melanoma it was 3.25 µM; in the test on NCI-H460 lung, 3.56 µM. Further, the GI50 with OVCAR-8 ovarian was 3.14 µM. Further, the TGI in the test with A549 NSCLC was > 100 µM; in the test on ACHN renal it was 35.6 µM; in the test with COLO 205 colon, > 100 µM; in the test on HCT-116 colon it was > 100 µM; with LOX IMVI melanoma, 10.4 µM; with NCI-H460 lung, > 100 µM. Besides, the TGI in the test with OVCAR-8 ovarian is > 100 µM.

Turning to `COc1ccc(-c2c[nH]c(C(=O)O)c2-c2cc(OC)c(OC)c(OC)c2)cc1`, the GI50 with A549 NSCLC was 6.61 µM; in the test on ACHN renal it was 9.74 µM; in the test on COLO 205 colon, 3.31 µM; in the test with HCT-116 colon it was 5.02 µM; with LOX IMVI melanoma, 6.69 µM; with NCI-H460 lung it was 3.8 µM. Further, the GI50 was 5.44 µM in the test on OVCAR-8 ovarian and 2.33 µM in the test with RXF 393 renal. In addition, the TGI with A549 NSCLC was > 100 µM; in the test on ACHN renal, > 100 µM; with COLO 205 colon, 17 µM; with HCT-116 colon, > 100 µM; with LOX IMVI melanoma, > 100 µM; in the test on NCI-H460 lung it was > 100 µM. Moreover, the TGI in the test on OVCAR-8 ovarian is > 100 µM; in the test with RXF 393 renal, 6.77 µM.

In the case of `O=C1c2ccccc2C(O)(O)C1(O)C1(O)C(=O)c2ccccc2C1(O)O` (stereo not given), the TGI was > 100 µM with A549 NSCLC; 47.9 µM with ACHN renal; 40.5 µM in the test with COLO 205 colon; 54.1 µM in the test with HCT-116 colon; 58.3 µM in the test with LOX IMVI melanoma; 37.3 µM in the test on NCI-H460 lung. Also, the TGI in the test on OVCAR-8 ovarian is > 100 µM; in the test with RXF 393 renal, 81.8 µM.

As to `Cc1ccc(S(=O)(=O)N/N=C/c2c(O)ccc3ccccc23)cc1`, the TGI in the test on A549 NSCLC is > 100 µM; in the test with ACHN renal, > 100 µM; in the test on COLO 205 colon it was 37.4 µM; with HCT-116 colon it was 45.6 µM; in the test on LOX IMVI melanoma it was > 100 µM; in the test with NCI-H460 lung, > 100 µM. The TGI with OVCAR-8 ovarian is > 100 µM; in the test with RXF 393 renal, 42.4 µM.

Take `CN(CCCn1c2c(c3ccccc3c1=O)C(=O)c1ccccc1-2)CCCn1c2c(c3ccccc3c1=O)C(=O)c1ccccc1-2`: the GI50 is 1.13 µM with A549 NSCLC, 1.64 µM in the test with COLO 205 colon, 0.0133 µM with HCT-116 colon and 0.242 µM with NCI-H460 lung. The TGI was 4.21 µM in the test with A549 NSCLC, > 45.7 µM in the test with COLO 205 colon, 0.37 µM in the test on HCT-116 colon and > 100 µM with NCI-H460 lung.

Consider `c1ccc2[nH]c(-c3ccc(-c4nccc5c4[nH]c4ccccc45)cc3)nc2c1`, for which the GI50 was 4.15 µM with A549 NSCLC; 2.05 µM in the test with ACHN renal; 2.32 µM in the test with COLO 205 colon; 2.83 µM in the test with HCT-116 colon; 3.03 µM in the test on NCI-H460 lung; 3.3 µM in the test on OVCAR-8 ovarian. For the same compound, the GI50 in the test with RXF 393 renal was 1.93 µM. In addition, the TGI in the test with A549 NSCLC worked out at 18.6 µM; with ACHN renal, 4.17 µM; in the test on COLO 205 colon, 6.22 µM; in the test with HCT-116 colon it was 10.4 µM; in the test on NCI-H460 lung it was 9.79 µM; in the test on OVCAR-8 ovarian, 13.5 µM. In the test with RXF 393 renal, this compound returned a TGI of 3.53 µM.

Regarding `COc1ccc2nc3cccc([N+](=O)[O-])c3c(NCCCCCC(=O)O)c2c1`, the GI50 with A549 NSCLC is 0.12 µM; in the test with ACHN renal, 0.0562 µM; in the test with HCT-116 colon, 0.0107 µM; in the test on LOX IMVI melanoma, 0.171 µM; in the test on NCI-H460 lung it was 0.0442 µM; in the test with OVCAR-8 ovarian it was 0.0877 µM. In addition, the TGI in the test on A549 NSCLC is 2.17 µM; in the test on ACHN renal it was 0.582 µM; with COLO 205 colon, 0.078 µM; in the test on HCT-116 colon, 3.51 µM; in the test on LOX IMVI melanoma, 0.487 µM; in the test on NCI-H460 lung, 0.806 µM. The compound also came in with a TGI with OVCAR-8 ovarian of 2.22 µM.

For the compound `COc1cc([N+](=O)[O-])c(OC)cc1-c1nc2sc(Cl)cn2c1/C(N)=N/C(=N)N`, the GI50 was 18.4 µM in the test on A549 NSCLC; > 56.9 µM in the test with ACHN renal; 2.71 µM in the test on COLO 205 colon; 2.41 µM with HCT-116 colon; 4.44 µM in the test with LOX IMVI melanoma; 16.1 µM in the test with NCI-H460 lung. Moreover, the GI50 in the test with RXF 393 renal was 4.3 µM. In addition, the TGI in the test on A549 NSCLC was > 53 µM; in the test on ACHN renal, > 100 µM; in the test on COLO 205 colon it was 6.67 µM; with HCT-116 colon it was 6.41 µM; with LOX IMVI melanoma, > 100 µM; in the test with NCI-H460 lung it was 46.7 µM. In the test with RXF 393 renal, the TGI was 16.9 µM.

As for `COc1cnc2c(c1)C(=O)c1c-2n(CCCn2ccnc2)c(=O)c2cc(F)ccc12`, the GI50 in the test with A549 NSCLC is 0.0209 µM; with COLO 205 colon, 0.0228 µM; in the test on HCT-116 colon, < 0.01 µM; with LOX IMVI melanoma, < 0.01 µM; in the test with NCI-H460 lung, < 0.01 µM; in the test with OVCAR-8 ovarian, 0.0151 µM. The GI50 with RXF 393 renal is 0.0309 µM. Moreover, the TGI in the test with A549 NSCLC came to 1.5 µM; in the test with COLO 205 colon it was 0.297 µM; in the test on HCT-116 colon, 0.141 µM; in the test with LOX IMVI melanoma it was 0.128 µM; in the test with NCI-H460 lung it was 0.133 µM; with OVCAR-8 ovarian, 13.9 µM. For the same compound, the TGI in the test with RXF 393 renal was found to be 0.171 µM.

Consider `COc1cc([C@@H]2OC[C@@H]3C(c4cc(OC)c5c(c4)OCO5)OC[C@@H]32)cc(OC)c1OC` (stereo not given in full), for which the TGI in the test on A549 NSCLC, in the test on ACHN renal, in the test on COLO 205 colon, in the test on HCT-116 colon, in the test on LOX IMVI melanoma and with NCI-H460 lung was > 100 µM each time. Besides, in the test with OVCAR-8 ovarian, the TGI was > 100 µM.

With `CC(=O)OCC1OC(n2cnc(C(N)=S)c2N)C(OC(C)=O)C1OC(C)=O` (stereo not given), the TGI in the test with A549 NSCLC, with ACHN renal, in the test on COLO 205 colon, with HCT-116 colon, in the test on LOX IMVI melanoma and with NCI-H460 lung was > 100 µM each time. In addition, the TGI with OVCAR-8 ovarian was > 100 µM.

Take `COc1cc(C(=O)O[C@H](C(=O)NCCCCCNC(=O)[C@@H](OC(=O)c2cc(OC)cc3c(C)cccc23)[C@]2(C)CO2)[C@]2(C)CO2)c2cccc(C)c2c1`: the GI50 in the test with A549 NSCLC was 0.447 µM; in the test on ACHN renal, < 0.0143 µM; in the test on COLO 205 colon, 0.286 µM; in the test on HCT-116 colon, 0.884 µM; in the test with LOX IMVI melanoma it was < 0.01 µM; in the test on RXF 393 renal, < 0.01 µM. The TGI is 10.2 µM in the test on A549 NSCLC; < 0.0338 µM with ACHN renal; 3.68 µM with HCT-116 colon; < 0.0138 µM with LOX IMVI melanoma; 0.675 µM with NCI-H460 lung; 0.025 µM in the test with RXF 393 renal.
